Common to all, as to experiment: microbe, parasite or virus in culture
Format in all cases: cell-based

The subject of one experiment is P. aeruginosa ATCC 27853. As to conditions: Pseudomonas aeruginosa, ATCC27853, read-out: Minimum inhibitory concentration, P. aeruginosa ATCC 27853.
Experiment [1] deals with B. humptydooensis ATCC BAA-2767. As to conditions: Burkholderia humptydooensis, ATCCBAA2767, read-out: Minimum inhibitory concentration (MIC), B. humptydooensis ATCC BAA-2767.
The test system of another experiment is P. aeruginosa CDC-0095. Conditions: Pseudomonas aeruginosa, CDC0095, read-out: Minimum inhibitory concentration, P. aeruginosa CDC-0095.
For the next experiment, the system named is P. aeruginosa ATCC 35151. Conditions: Pseudomonas aeruginosa, ATCC35151, read-out: Minimum inhibitory concentration, P. aeruginosa ATCC 35151.
The next experiment has as its system A. baumannii CDC-0033. As to conditions: Acinetobacter baumannii, CDC0033, read-out: MIC, A. baumannii CDC-0033.

Values after ≈ are worked out from the molar mass of the structure shown.

Drawing on patent publication US20240270762A1, “PENICILLIN-BINDING PROTEIN INHIBITORS” (priority 2021, published 2024), this text covers MIC for 13 molecules.

On to `O=C(NCCCN1CCN(C(=O)NC(C(=O)N[C@H]2Cc3ccc(F)c(C(=O)O)c3OB2O)c2cc(F)c(O)c(O)c2Cl)C(=O)C1=O)c1c(F)cncc1F` (stereo partly drawn) [Example 402, (3R)-3-(2-(2-chloro-5-fluoro-3,4-dihydroxyphenyl)-2-(4-(3-(3,5-difluoroisonicotinamido)propyl)-2,3-dioxopiperazine-1-carboxamido)acetamido)-7-fluoro-2-hydroxy-3,4-dihydro-2H-benzo[e][1,2]oxaborinine-8-carboxylic acid], for which the MIC in the experiment on P. aeruginosa ATCC 27853 is 2 to 4 µg/mL (≈ 2.56 to 5.12 µM); in experiment [1], 2 to 4 µg/mL (≈ 2.56 to 5.12 µM); in the experiment on P. aeruginosa CDC-0095, < 1 µg/mL; in the experiment with P. aeruginosa ATCC 35151, < 1 µg/mL; in the experiment with A. baumannii CDC-0033, 2 to 4 µg/mL (≈ 2.56 to 5.12 µM).

In the case of `O=C(NCCCN1CCN(C(=O)NC(C(=O)N[C@H]2Cc3ccc(F)c(C(=O)O)c3OB2O)c2cc(F)c(O)c(O)c2Cl)C(=O)C1=O)c1c(F)cncc1Cl` (stereo partly drawn) [Example 403, (3R)-3-(2-(2-chloro-5-fluoro-3,4-dihydroxyphenyl)-2-(4-(3-(3-chloro-5-fluoroisonicotinamido)propyl)-2,3-dioxopiperazine-1-carboxamido)acetamido)-7-fluoro-2-hydroxy-3,4-dihydro-2H-benzo[e][1,2]oxaborinine-8-carboxylic acid], the MIC in the experiment with P. aeruginosa ATCC 27853 was 2 to 4 µg/mL (≈ 2.51 to 5.02 µM); in experiment [1] it was 2 to 4 µg/mL (≈ 2.51 to 5.02 µM); with P. aeruginosa CDC-0095 it was 2 to 4 µg/mL (≈ 2.51 to 5.02 µM); in the experiment on P. aeruginosa ATCC 35151, < 1 µg/mL; in the experiment with A. baumannii CDC-0033 it was 2 to 4 µg/mL (≈ 2.51 to 5.02 µM).

In the case of `O=C(NCCCN1CCN(C(=O)NC(C(=O)N[C@H]2Cc3ccc(F)c(C(=O)O)c3OB2O)c2cc(F)c(O)c(O)c2Cl)C(=O)C1=O)c1cc(F)c(F)c(O)c1F` (stereo partly drawn) [Example 404, (3R)-3-(2-(2-chloro-5-fluoro-3,4-dihydroxyphenyl)-2-(2,3-dioxo-4-(3-(2,4,5-trifluoro-3-hydroxybenzamido)propyl)piperazine-1-carboxamido)acetamido)-7-fluoro-2-hydroxy-3,4-dihydro-2H-benzo[e][1,2]oxaborinine-8-carboxylic acid], the MIC with P. aeruginosa ATCC 27853 was 2 to 4 µg/mL (≈ 2.46 to 4.91 µM); in experiment [1], > 128 µg/mL; with P. aeruginosa CDC-0095, 2 to 4 µg/mL (≈ 2.46 to 4.91 µM); in the experiment with P. aeruginosa ATCC 35151, < 1 µg/mL; in the experiment with A. baumannii CDC-0033, 2 to 4 µg/mL (≈ 2.46 to 4.91 µM).

Regarding `O=C(NCCCN1CCN(C(=O)NC(C(=O)N[C@H]2Cc3ccc(F)c(C(=O)O)c3OB2O)c2cc(F)c(O)c(O)c2Cl)C(=O)C1=O)c1cccc(O)c1F` (stereo partly drawn) [Example 406, (3R)-3-(2-(2-chloro-5-fluoro-3,4-dihydroxyphenyl)-2-(4.-(3-(2-fluoro-3-hydroxybenzamido)propyl)-2,3-dioxopiperazine-1-carboxamido)acetamido)-7-fluoro-2-hydroxy-3,4-dihydro-2H-benzo[e][1,2]oxaborinine-8-carboxylic acid], the MIC with P. aeruginosa ATCC 27853 is < 1 µg/mL; in experiment [1], 8 to 16 µg/mL (≈ 10.3 to 20.6 µM); in the experiment with P. aeruginosa CDC-0095, < 1 µg/mL; with P. aeruginosa ATCC 35151 it was < 1 µg/mL; with A. baumannii CDC-0033 it was 2 to 4 µg/mL (≈ 2.57 to 5.14 µM).

Consider `O=C(NCCCN1CCN(C(=O)NC(C(=O)N[C@H]2Cc3ccc(F)c(C(=O)O)c3OB2O)c2cc(F)c(O)c(O)c2Cl)C(=O)C1=O)c1cc(O)ccc1F` (stereo partly drawn) [Example 407, (3R)-3-(2-(2-chloro-5-fluoro-3,4-dihydroxyphenyl)-2-(4-(3-(2-fluoro-5-hydroxybenzamido)propyl)-2,3-dioxopiperazine-1-carboxamido)acetamido)-7-fluoro-2-hydroxy-3,4-dihydro-2H-benzo[e][1,2]oxaborinine-8-carboxylic acid], for which the MIC in the experiment on P. aeruginosa ATCC 27853 was < 1 µg/mL; in experiment [1], 8 to 16 µg/mL (≈ 10.3 to 20.6 µM); with P. aeruginosa CDC-0095, 2 to 4 µg/mL (≈ 2.57 to 5.14 µM); in the experiment with P. aeruginosa ATCC 35151 it was < 1 µg/mL; in the experiment on A. baumannii CDC-0033, 2 to 4 µg/mL (≈ 2.57 to 5.14 µM).

With `O=C(NCCCN1CCN(C(=O)NC(C(=O)N[C@H]2Cc3ccc(F)c(C(=O)O)c3OB2O)c2cc(F)c(O)c(O)c2Cl)C(=O)C1=O)c1cc(O)ccc1Cl` (stereo partly drawn) [Example 408, (3R)-3-(2-(2-chloro-5-fluoro-3,4-dihydroxyphenyl)-2-(4-(3-(2-chloro-5-hydroxybenzamido)propyl)-2,3-dioxopiperazine-1-carboxamido)acetamido)-7-fluoro-2-hydroxy-3,4-dihydro-2H-benzo[e][1,2]oxaborinine-8-carboxylic acid], the MIC in the experiment with P. aeruginosa ATCC 27853 was < 1 µg/mL; in experiment [1], 8 to 16 µg/mL (≈ 10.1 to 20.1 µM); in the experiment with P. aeruginosa CDC-0095 it was < 1 µg/mL; in the experiment with P. aeruginosa ATCC 35151, < 1 µg/mL; with A. baumannii CDC-0033, 2 to 4 µg/mL (≈ 2.52 to 5.04 µM).

As to `O=C(NCCCN1CCN(C(=O)NC(C(=O)N[C@H]2Cc3ccc(F)c(C(=O)O)c3OB2O)c2cc(F)c(O)c(O)c2Cl)C(=O)C1=O)c1ccc(F)c(O)c1` (stereo partly drawn) [Example 409, (3R)-3-(2-(2-chloro-5-fluoro-3,4-dihydroxyphenyl)-2-(4-(3-(4-fluoro-3-hydroxybenzamido)propyl)-2,3-dioxopiperazine-1-carboxamido)acetamido)-7-fluoro-2-hydroxy-3,4-dihydro-2H-benzo[e][1,2]oxaborinine-8-carboxylic acid], the MIC with P. aeruginosa ATCC 27853 was < 1 µg/mL; in experiment [1], 8 to 16 µg/mL (≈ 10.3 to 20.6 µM); in the experiment with P. aeruginosa CDC-0095, 2 to 4 µg/mL (≈ 2.57 to 5.14 µM); with P. aeruginosa ATCC 35151, < 1 µg/mL; in the experiment with A. baumannii CDC-0033, 2 to 4 µg/mL (≈ 2.57 to 5.14 µM).

`O=C(NCCCN1CCN(C(=O)NC(C(=O)N[C@H]2Cc3ccc(F)c(C(=O)O)c3OB2O)c2cc(F)c(O)c(O)c2Cl)C(=O)C1=O)c1cc(O)cc(F)c1` (stereo partly drawn) [Example 410, (3R)-3-(2-(2-chloro-5-fluoro-3,4-dihydroxyphenyl)-2-(4-(3-(3-fluoro-5-hydroxybenzamido)propyl)-2,3-dioxopiperazine-1-carboxamido)acetamido)-7-fluoro-2-hydroxy-3,4-dihydro-2H-benzo[e][1,2]oxaborinine-8-carboxylic acid]: the MIC in the experiment with P. aeruginosa ATCC 27853 was < 1 µg/mL; in experiment [1], > 128 µg/mL; in the experiment on P. aeruginosa CDC-0095, 2 to 4 µg/mL (≈ 2.57 to 5.14 µM); in the experiment on P. aeruginosa ATCC 35151, < 1 µg/mL; in the experiment on A. baumannii CDC-0033 it was 2 to 4 µg/mL (≈ 2.57 to 5.14 µM).

Consider `O=C(NCCCN1CCN(C(=O)NC(C(=O)N[C@H]2Cc3ccc(F)c(C(=O)O)c3OB2O)c2cc(F)c(O)c(O)c2Cl)C(=O)C1=O)c1ccc(F)c(O)c1F` (stereo partly drawn) [Example 411, (3R)-3-(2-(2-chloro-5-fluoro-3,4-dihydroxyphenyl)-2-(4-(3-(2,4-difluoro-3-hydroxybenzamido)propyl)-2,3-dioxopiperazine-1-carboxamido)acetamido)-7-fluoro-2-hydroxy-3,4-dihydro-2H-benzo[e][1,2]oxaborinine-8-carboxylic acid], for which the MIC in the experiment with P. aeruginosa ATCC 27853 is < 1 µg/mL; in experiment [1], 2 to 4 µg/mL (≈ 2.51 to 5.03 µM); with P. aeruginosa CDC-0095, < 1 µg/mL; with P. aeruginosa ATCC 35151, < 1 µg/mL; with A. baumannii CDC-0033, 8 to 16 µg/mL (≈ 10.1 to 20.1 µM).

As for `O=C(NCCCN1CCN(C(=O)NC(C(=O)N[C@H]2Cc3ccc(F)c(C(=O)O)c3OB2O)c2cc(F)c(O)c(O)c2Cl)C(=O)C1=O)c1ccc(F)c(O)c1Cl` (stereo partly drawn) [Example 412, (3R)-3-(2-(4-(3-(2-chloro-4-fluoro-3-hydroxybenzamido)propyl)-2,3-dioxopiperazine-1-carboxamido)-2-(2-chloro-5-fluoro-3,4-dihydroxyphenyl)acetamido)-7-fluoro-2-hydroxy-3,4-dihydro-2H-benzo[e][1,2]oxaborinine-8-carboxylic acid], the MIC in the experiment with P. aeruginosa ATCC 27853 was < 1 µg/mL; in experiment [1], 2 to 4 µg/mL (≈ 2.46 to 4.92 µM); in the experiment with P. aeruginosa CDC-0095, 2 to 4 µg/mL (≈ 2.46 to 4.92 µM); in the experiment with P. aeruginosa ATCC 35151 it was < 1 µg/mL; in the experiment with A. baumannii CDC-0033, 8 to 16 µg/mL (≈ 9.85 to 19.7 µM).

Consider `O=C(NCCCN1CCN(C(=O)NC(C(=O)N[C@H]2Cc3ccc(F)c(C(=O)O)c3OB2O)c2cc(F)c(O)c(O)c2Cl)C(=O)C1=O)c1c(F)ccc(O)c1F` (stereo partly drawn) [Example 413, (3R)-3-(2-(2-chloro-5-fluoro-3,4-dihydroxyphenyl)-2-(4-(3-(2,6-difluoro-3-hydroxybenzamido)propyl)-2,3-dioxopiperazine-1-carboxamido)acetamido)-7-fluoro-2-hydroxy-3,4-dihydro-2H-benzo[e][1,2]oxaborinine-8-carboxylic acid], for which the MIC with P. aeruginosa ATCC 27853 is < 1 µg/mL; in experiment [1], 2 to 4 µg/mL (≈ 2.51 to 5.03 µM); in the experiment on P. aeruginosa CDC-0095, < 1 µg/mL; in the experiment with P. aeruginosa ATCC 35151, < 1 µg/mL; in the experiment with A. baumannii CDC-0033, 2 to 4 µg/mL (≈ 2.51 to 5.03 µM).

For the molecule `O=C(NCCCN1CCN(C(=O)NC(C(=O)N[C@H]2Cc3ccc(F)c(C(=O)O)c3OB2O)c2cc(F)c(O)c(O)c2Cl)C(=O)C1=O)c1c(F)ccc(O)c1Cl` (stereo partly drawn) [Example 414, (3R)-3-(2-(2-chloro-5-fluoro-3,4-dihydroxyphenyl)-2-(4-(3-(2-chloro-6-fluoro-3-hydroxybenzamido)propyl)-2,3-dioxopiperazine-1-carboxamido)acetamido)-7-fluoro-2-hydroxy-3,4-dihydro-2H-benzo[e][1,2]oxaborinine-8-carboxylic acid], the MIC in the experiment on P. aeruginosa ATCC 27853 is < 1 µg/mL; in experiment [1], 2 to 4 µg/mL (≈ 2.46 to 4.92 µM); in the experiment with P. aeruginosa CDC-0095 it was < 1 µg/mL; in the experiment on P. aeruginosa ATCC 35151, < 1 µg/mL; with A. baumannii CDC-0033 it was 2 to 4 µg/mL (≈ 2.46 to 4.92 µM).

On to `O=C(NCCCN1CCN(C(=O)NC(C(=O)N[C@H]2Cc3ccc(F)c(C(=O)O)c3OB2O)c2cc(F)c(O)c(O)c2Cl)C(=O)C1=O)c1cc(O)c(F)c(O)c1F` (stereo partly drawn) [Example 415, (3R)-3-(2-(2-chloro-5-fluoro-3,4-dihydroxyphenyl)-2-(4-(3-(2,4-difluoro-3,5-dihydroxybenzamido)propyl)-2,3-dioxopiperazine-1-carboxamido)acetamido)-7-fluoro-2-hydroxy-3,4-dihydro-2H-benzo[e][1,2]oxaborinine-8-carboxylic acid], for which the MIC in the experiment with P. aeruginosa ATCC 27853 is < 1 µg/mL; in experiment [1], 8 to 16 µg/mL (≈ 9.85 to 19.7 µM); in the experiment with P. aeruginosa CDC-0095 it was < 1 µg/mL; in the experiment with P. aeruginosa ATCC 35151, < 1 µg/mL; in the experiment with A. baumannii CDC-0033, 2 to 4 µg/mL (≈ 2.46 to 4.93 µM).
